# Assay results reported in paper PMC6068344, “CPP‐E1A fusion peptides inhibit CtBP‐mediated transcriptional repression” (Molecular Oncology, 2018).
# No end group written: not given here.
# Experiments:
# [1] = target: CtBP1; settings: ref Zhang et al., 2002; read-out: K d, binding to CtBP1; cited from earlier work
# Description: This idea is strengthened by several studies that have found a correlation between CtBP1/2 overexpression and cancer progression in multiple tumor types, including blood (Senyuk et al., 2002), skin (Deng et al., 2013), breast (Birts et al., 2010; Deng et al., 2012; Di et al., 2013), prostate (Moiola et al., 2014; Wang et al., 2012), ovarian (May et al., 2013; Zhang e ...
# [2] = target: 6xHis‐CtBP1 (UniProt Q13363); assay: AlphaScreen; settings: competition against the CtBP1-E1A interaction, peptide at 250 µM (highest concentration), IC50 printed as 'Not determined', read off a plot
# [3] = test system: H1299 cells; assay: Subcellular fractionation and anti-FLAG western blot of the nuclear fraction; assay type: in vitro ADME, human; settings: 1-h treatment, anti-FLAG, two biological replicates
# Protocol: For cellular fractionation, H1299 cells were treated with 42 μg·mL^−1 digitonin in NEH lysis buffer (20 mM HEPES [pH 7.4], 150 mM NaCl, 0.2 mM EDTA, 2 mM DTT, and 2 mM MgCl2) plus a protease inhibitor cocktail (Roche) for 10 min at 4 °C. The H1299 cell lysate was centrifugated at 15 000 g in a Beckman Coulter Microfuge 22R (Beckman Coulter, Brea, CA, USA) for 10 min at 4 °C to remove the cytosolic fraction. The remaining pellet was washed twice with chilled PBS before the addition of the nuclear lysis buffer (40 mM Tris/HCl [pH 7.4], 100 mM NaCl, 10% glycerol, 2 mM β‐ME, and 0.5% Triton X‐100) plus the protease inhibitor cocktail. The nuclear fraction was incubated at 4 °C for 1 h before the final centrifugation at 15 000 g for 20 min. The soluble nuclear fraction was then used for a western blot analysis to monitor peptide levels within the nuclear fraction using a FLAG antibody (LT0420; LifeTein LLC, Somerset, NJ, USA). The western blot was also probed with primary antibodies against α‐tubulin (sc‐8035; SantaCruz Biotechnology, Dallas, TX, USA) and HDAC1 (ab‐68436; Abcam, Cambridge, MA, USA) as cytoplasmic and nuclear controls, respectively, to confirm subcellular fractionation.
# [4] = test system: A375 cells; assay: Peptide internalization by anti-FLAG immunofluorescence in A375 cells; assay type: in vitro ADME, human; settings: for Entry into A375 cells: anti-FLAG immunofluorescence as in Figure 2 (20 μM, 30 min)
# Protocol: (§1) H1299 or A375 cells were allowed to adhere to a cover slip overnight in DMEM complete media and grown until they reached approximately 75% confluency on the cover slip surface. After a 30 min treatment with 20 μM peptides, TAT (used as a negative control), TAT‐E1A‐WT, and Pep1‐E1A‐WT, cells were fixed for 10 min using 100% methanol, and permeabilized for 1 min in 100% acetone. Each sample was stained with an anti‐FLAG antibody and detected using an Alexa Fluor 555 anti‐mouse IgG (4409S; Cell Signaling Technology, Danvers, MA, USA). DAPI staining was used to visualize the nucleus.
# [5] = test system: H1299 cells; assay: Peptide internalization by anti-FLAG immunofluorescence in H1299 cells; assay type: in vitro ADME, human; settings: 20 μM peptide, 30 min, DAPI
# Protocol: as §1
# [6] = target: T1, 6xHis-CtBP1 and GST-E1A (CtBP1-E1A interaction) (Homo sapiens, UniProt Q13363); assay: AlphaScreen assay of the CtBP1-E1A interaction; assay type: binding; settings: AlphaScreen competition with GST-E1A; 125 nM 6xHis-CtBP1, 125 nM GST-E1A; peptide 2 μM to 200 μM; three experiments in triplicate; GraphPad Prism; read-out: IC50 (μM), disruption of the CtBP1-E1A interaction
# T1 construct: 6xHis; made in house
# Protocol: The AlphaScreen assay was carried out using 6xHis‐CtBP1 and GST‐E1A proteins following the manufacturer's protocol (PerkinElmer, Waltham, MA, USA) unless otherwise specified. GST‐E1A and 6xHis‐CtBP were purified as previously described (Blevins et al., 2015). To confirm inhibition by CPP‐E1A peptides, each peptide was added at varying concentrations (2 μM to 200 μM) to compete with GST‐E1A in the AlphaScreen assay containing 125 nM 6xHis‐CtBP1 and 125 nM GST‐E1A. The IC50 value of each peptide was calculated using the GRAPHPAD PRISM software (GraphPad Software, San Diego, CA, USA).
# [7] = Peptide stability in H1299 cells (western blot, fluorescence microscopy); assay type: in vitro ADME, human; settings: 10 μM, 45 min, 2 h, 4 h, 8 h, western blot and FITC fluorescence microscopy
compound,measurement,setting,value
"NC(=O)C1=CN([C@@H]2O[C@H](COP(=O)(O)OP(=O)(O)OC[C@H]3O[C@@H](n4cnc5c(N)ncnc54)[C@H](O)[C@@H]3O)[C@@H](O)[C@H]2O)C=CC1 [NADH, nicotinamide adenine dinucleotide]",Kd,[1],0.1 µM
TAT‐E1A‐WT L27E; S28L,response,[2]; parent: est. 3,80 % Bound
Pep1‐E1A‐WT L35E; S36L,response,[2]; parent: est. 5,58 % Bound
GSHMGRKKRRQRRRPPQLEEPGQPLDLSCKRPRDYKDDDDK [TAT-E1A-WT],Peptide in the nuclear fraction (western blot),[3],found in the nuclear fraction
same,Entry into A375 cells,[4],can enter the A375 cells
same,Localization to the nucleus by immunofluorescence,[5],much lower amount in the nucleus
same,IC50,[6],5.6 ± 1.4 µM
GSHMKETWWETWWTEWSQPKKKRKVLEEPGQPLDLSCKRPRDYKDDDDK [Pep1-E1A-WT],Peptide in the nuclear fraction (western blot),[3],found in the nuclear fraction
same,Nuclear localization pattern in A375 cells,[4]; anti-FLAG immunofluorescence as in Figure 2,more predominant nuclear localization pattern
same,Entry into A375 cells,[4],can enter the A375 cells
same,Peptide half-life / stability in vitro,[7],short half‐life
same,Localization to the nucleus by immunofluorescence,[5],significant amount of localization to the nucleus
same,IC50,[6],7.1 ± 1.2 µM
